Laboratory results published in US20040013721A1, “Controlled and sustained release properties of polyelectrolyte multilayer capsules” (priority 2000, published 2004).

Test: Permeability for probe polymers and dyes, and its temperature dependence, by confocal imaging
Assay type: physicochemical
Settings: independent of their charge
Description: Monodisperse spheres (d=5.94 μm) of a weakly polymerized melamine-formaldehyde resin were used as templates (Microparticle GmbH). The particles were covered by alternating adsorption of sodium polystyrene sulfonate PSS (MW 70 000 g mol^−1, Aldrich) and polyallylamine hydrochloride PAH (MW 70 000 g mol^−1, Aldrich) from an aqueous solution of 10^−2 M PSS in 0.1 M sodium chloride. After 8 layers the core was dissolved in 0.1 M hydrochloric acid. The decomposition products were removed by washing with acid and an aqueous solution of 10^−2 M NaCl. Hollow polyelectrolyte capsules remained. […]
For the study of the permeability, fluorescence labeled polymers were used. […] The MW of the polymer was determined being 120 000 g/mol by gel permeation chromatography. […]
Laser scanning microscopy was performed for the determination of the loading grade of the capsules. […] The amounts of polymer/monomer in the interior were determined by integration of the fluorescence intensity inside the capsules. The exact concentration was taken from calibration curves, determined for each fluorescent probe separately. […]
The permeability of the capsules was studied for positively (PAH) and negatively charged (PSS), zwitterionic (albumine) and noncharged (dextran) fluorescent polymers (dextran). […] Then, the fluorescence intensity in the center of the capsules was measured by confocal imaging. […]

CN(C)c1ccc2cc3ccc(N(C)C)cc3nc2c1 [acridine orange]
penetration of the capsule wall by small dye molecules: can penetrate the capsule wall

rhodamine
penetration of the capsule wall by small dye molecules: can penetrate the capsule wall
